One test concerns bladder function. The experiment in a line: In vivo assay of bladder function (cystometry) in conscious rats. On the set-up: species or system rat. The procedure: This study was performed in order to assess the effects of compounds on various aspects of bladder function in conscious rats. See, Clouse, 2012, Urology 79(6):1410e1-1410e6. Rats were prepared with indwelling polyethylene catheters positioned into the bladder through the dome and exteriorized at the scapular level. […] pressure was monitored by connecting the catheter to a commercial strain gauge via a T-connector that permitted the infusion of solutions and drugs. Cystometric recording commenced 48 hours after catheter implantation. Animals were continuously administered saline, with or without test compounds, through the catheter, at a rate of 2 mL/hr. Urine was collected and weighed using a force transducer and intravesical pressure was continually monitored in order to assess micturition amplitude, frequency and volume and bladder capacity. Saline perfusions were supplemented with test compounds in order to determine the effects on each of the above bladder function parameters.

The subject of test [1] is isolated detrusor bladder muscle. The experiment in a line: In vitro assay on isolated bladder detrusor muscle strips, EFS-induced contractions in organ bath. Further details: species or system guinea pig. The following applies: for IC50, inhibition of EFS-induced detrusor contractions: cumulative concentration-response, isolated guinea pig detrusor strips; for steady-state inhibition of EFS-induced contractile response: drug 0.01% in organ bath. The procedure:
Whole bladders were removed from euthanized female guinea pigs, longitudinal detrusor muscle strips were dissected from each bladder and were mounted in a conventional glass organ bath and perfused continuously with an oxygenated Krebs solution. Detrusor contractions were elicited in response to electrical field stimulation (EFS) and were recorded using isometric force transducers linked to a data acquisition software system. After an equilibration period, tissue strips were subjected to regular EFS for a period of 30 minutes or until stable baseline contractions were attained.

The test system of the next test is micturition pattern. The note with it: animal model of IC and OAB; cited from earlier work.
Test [2] has as its system noxious urinary bladder distention. The following applies: in vivo; cited from earlier work.
Where [3] appears, read: infusion of 0.3% solution into bladder, conscious rats.

As for `Cc1ccccc1N(CC[C@H]1CCCC[N+]1(C)C)C1Cc2ccccc2C1.[I-]` [(R)-1,1-dimethyl-2-[2-((indan-2-yl)(2-methylphenyl)amino)ethyl]piperidinium iodide], in the test with bladder function (compared to lidocaine), the “duration of action on micturition frequency” value is recorded as “longer duration of action”.

For `Cc1ccccc1N(CC[C@H]1CCCC[N+]1(C)C)C1Cc2ccccc2C1.[Br-]` [example 43, (R)-1,1-dimethyl-2-[2-((indan-2-yl)(2-methylphenyl)amino)ethyl]piperidinium iodide], the “time for which steady state inhibition was maintained after drug had been eliminated from the organ bath” value in test [1] (0.01%) is listed as “at least 2 hours”. In test [1], the “IC50, inhibition of EFS-induced detrusor contractions” value is roughly 0.0001% and the “steady-state inhibition of EFS-induced contractile response” value is on record as 30-45%. Moreover, the “potency relative to lidocaine alone” value in test [1] (from IC50 for inhibition of EFS-induced detrusor contractions) is on record as “about 10 fold”. Also, the “period of effect on bladder capacity and micturition volume after administration” value in the test with bladder function (infusion of 0.3% solution) amounted to 2 h. For the same compound, in the test on bladder function (setting [3]), the bladder capacity result is “increase in bladder capacity” and the micturition volume entry is “decrease in micturition volume”.

For the compound `CCN(CC)CC(=O)Nc1c(C)cccc1C` [lidocaine, reference compound], in test [1] (0.01%, by 2 hours after washing out), the “recovery of EFS-induced contractile response after washout” value is recorded as “around 80 % of predrug levels”. For the same compound, in test [1], the “IC50, inhibition of EFS-induced detrusor contractions” value is on record as roughly 0.001% and the “steady-state inhibition of EFS-induced contractile response” value is given as roughly 40%. Further, the “micturition pattern as determined by cystometry” value with micturition pattern is “normalizes the micturition pattern”.

With `Cc1cccc(C)c1OCC(C)N` (stereo not shown) [mexilitine], the “painful sensation of noxious urinary bladder distention” value in test [2] was “prevents the painful sensation”.

These data come from patent US9044482B2, “Use of aminoindane compounds in treating overactive bladder and interstitial cystitis” (priority 2012, dated 2015).
